Earlier results, collected in PubChem BioAssay AID1259409 (Chemical Carcinogenesis Research Information System (CCRIS), 2018).
Where “and” joins values, the source holds several entries; their conditions need not be identical. Equal values may be shown once.

System: rodent chemically induced tumor inhibition, incidence and multiplicity
Experiment: CCRIS tumor inhibitor studies
Conditions: Promoter: NONE USED

Question: Which outcome (Carcinogen: N-METHYL-N'-NITRO-N-NITROSOGUANIDINE, 70-25-7, Dose [Inhibitor]: 0, 0.4% IN DIET FOR 2 WK PRIOR TO FIRST CARCINOGEN DOSE FOLLOWED BY 0, 0.2% IN DIET FOR 52 WK (STUDY DURATION: 54 WK), Dose [Inhibitor]: 0, 0.4% IN DIET FOR 2 WK PRIOR TO FIRST CARCINOGEN DOSE FOLLOWED BY 0, 0.2% IN DIET FOR 52 WK (STUDY DURATION: 54 WK), Route [Inhibitor]: ORAL, Species: RAT, Strain/Sex: WISTAR/MALE, Target Tissue: Type of Lesion: SMALL INTESTINE: FIBROSARCOMA, Dose [Carcinogen]: 80 UG/ML IN DRINKING WATER FOR 52 WK) does the source give for `CC1=C(/C=C/C(C)=C/C=C/C(C)=C/C=C/C=C(C)/C=C/C=C(C)/C=C/C2=C(C)CCCC2(C)C)C(C)(C)CCC1` here?
Answer: 0/36 (0%), 1/35 (3%), -300%, not calculated

Question: What about the “tumour outcome (control, treated, inhibition, significance)” value (Carcinogen: N-METHYL-N'-NITRO-N-NITROSOGUANIDINE, 70-25-7, Dose [Inhibitor]: 0, 0.4% IN DIET FOR 2 WK PRIOR TO FIRST CARCINOGEN DOSE FOLLOWED BY 0, 0.2% IN DIET FOR 52 WK (STUDY DURATION: 54 WK), Dose [Inhibitor]: 0, 0.4% IN DIET FOR 2 WK PRIOR TO FIRST CARCINOGEN DOSE FOLLOWED BY 0, 0.2% IN DIET FOR 52 WK (STUDY DURATION: 54 WK), Route [Inhibitor]: ORAL, Species: RAT, Strain/Sex: WISTAR/MALE, Target Tissue: Type of Lesion: SMALL INTESTINE: LEIOMYOMA, Dose [Carcinogen]: 80 UG/ML IN DRINKING WATER FOR 52 WK) of the same molecule?
Answer: 1/36 (3%), 0/35 (0%), 100%, not calculated

Question: What about the “tumour outcome (control, treated, inhibition, significance)” value (Carcinogen: NONE USED, Dose [Inhibitor]: 0, 0.005% IN DRINKING WATER AD LIBITUM FOR 40 WK (STUDY DURATION: 40 WK), Route [Inhibitor]: ORAL, Species: MOUSE, Strain/Sex: C3H/HE/MALE, Target Tissue: Type of Lesion: LIVER: TUMOR) of the same molecule?
Answer: 100%, 100%, 0%, not significant

Question: And the “tumour outcome (control, treated, inhibition, significance)” value (Carcinogen: NONE USED, Dose [Inhibitor]: 0, 0.005% IN DRINKING WATER FOR 40 WK (STUDY DURATION: 40 WK), Route [Inhibitor]: ORAL, Species: MOUSE, Strain/Sex: C3H/HE/MALE, Target Tissue: Type of Lesion: LIVER: TUMORS)?
Answer: 16/16 (100%), 16/16 (100%), 0%, not significant

Question: And the “tumour outcome (control, treated, inhibition, significance)” value (Carcinogen: NONE USED, Dose [Inhibitor]: 0, 0.05% IN DRINKING WATER AD LIBITUM FOR 40 WK (STUDY DURATION: 40 WK), Route [Inhibitor]: ORAL, Species: MOUSE, Strain/Sex: C3H/HE/MALE, Target Tissue: Type of Lesion: LIVER: TUMOR)?
Answer: 100%, 100%, 0%, not significant

Question: And the “tumour outcome (control, treated, inhibition, significance)” value (Carcinogen: NONE USED, Dose [Inhibitor]: 0, 0.05% IN DRINKING WATER FOR 40 WK (STUDY DURATION: 40 WK), Route [Inhibitor]: ORAL, Species: MOUSE, Strain/Sex: C3H/HE/MALE, Target Tissue: Type of Lesion: LIVER: TUMORS)?
Answer: 16/16 (100%), 17/17 (100%), 0%, not significant

Question: And the “tumour outcome (control, treated, inhibition, significance)” value (Carcinogen: NONE USED, Dose [Inhibitor]: 0, 2.5 MG/D IN DRINKING WATER FROM 8 MO OF AGE (STUDY DURATION: 15 MO), Route [Inhibitor]: ORAL, Species: MOUSE, Strain/Sex: C3H/FEMALE, Target Tissue: Type of Lesion: MAMMARY GLAND: TUMOR)?
Answer: 12/20 (60%), 4/19 (21%), 65%, not calculated

Question: What about the “tumour outcome (control, treated, inhibition, significance)” value (Carcinogen: UV-B IRRADIATION (HANOVIA QUARTZ CONTACT LAMP IN 290-320 NM RANGE), Dose [Inhibitor]: 0.4 ML OF BEADLET SOLUTION CONTAINING 0.1 G/4 ML 3/WK FOR 1 MO FOLLOWED BY 0.2 ML OF BEADLET SOLUTION CONTAINING 0.1 G/4, Route [Inhibitor]: INTRAPERITONEAL, Species: MOUSE, Strain/Sex: ALBINO, Target Tissue: Type of Lesion: SKIN: SQUAMOUS CELL CARCINOMA, Dose [Carcinogen]: 6.5 KJ/SQ M 3/WK FOR 15 MO BEGINNING 1 MO POST AGENT DOSE) of the same molecule?
Answer: 14/21 (67%), 6/20 (25%), 63%, p=0.0189 and 14/21 (67%), 5/18 (28%), 58%, p=0.0154

Question: And the “tumour outcome (control, treated, inhibition, significance)” value (Carcinogen: UV-B IRRADIATION (WESTINGHOUSE FS-20 SUNLAMP 55% IN 290-320 NM RANGE), Dose [Inhibitor]: 3.3 G/100 G OF PELLETIZED FEED BEGINNING 10 WK PRIOR TO CARCINOGEN DOSE TO 24 WK POST CARCINOGEN DOSE (STUDY DURATION: 3, Route [Inhibitor]: ORAL, Species: MOUSE, Strain/Sex: SKH, Target Tissue: Type of Lesion: SKIN: TUMOR, Dose [Carcinogen]: 80 KJ/SQ M TOTAL ENERGY DURING A 220 MINUTE SINGLE EXPOSURE)?
Answer: 4/9 (44%), 2/7 (29%), 34%, not significant

Question: What about the “tumour outcome (control, treated, inhibition, significance)” value (Carcinogen: UVB IRRADIATION, Dose [Inhibitor]: 0, 1% IN DIET FOR DURATION OF STUDY BEGINNING 3 WK PRIOR TO IRRADIATION (STUDY DURATION: 33 WK), Route [Inhibitor]: ORAL, Species: MOUSE, Strain/Sex: C3H/HEN/FEMALE, Target Tissue: Type of Lesion: SKIN: TUMOR, Dose [Carcinogen]: 6 J/M2/SEC 30 MIN/D, 5 D/WK FOR 27 WK) of the same molecule?
Answer: 81%, 67%, 17%, not significant
